Experimental data taken from publication PMC11186346, “Conformational flexibility driving charge-selective substrate translocation across a bacterial transporter” (Chemical Science, 2024).
Where two headings read alike, the source gives them in different places.

Tests used:
native CymA = biological target: T1, native CymA (Klebsiella oxytoca, UniProt Q48391); assay: single-channel electrical recording, planar lipid bilayer; type: biochemical; details: +50 mV
T1 construct: full-length mature pore, residues 1-324, purified as described in earlier work, reconstituted in DPhPC planar lipid bilayers; monomeric beta-barrel
T1 sequence (Q48391 23-346): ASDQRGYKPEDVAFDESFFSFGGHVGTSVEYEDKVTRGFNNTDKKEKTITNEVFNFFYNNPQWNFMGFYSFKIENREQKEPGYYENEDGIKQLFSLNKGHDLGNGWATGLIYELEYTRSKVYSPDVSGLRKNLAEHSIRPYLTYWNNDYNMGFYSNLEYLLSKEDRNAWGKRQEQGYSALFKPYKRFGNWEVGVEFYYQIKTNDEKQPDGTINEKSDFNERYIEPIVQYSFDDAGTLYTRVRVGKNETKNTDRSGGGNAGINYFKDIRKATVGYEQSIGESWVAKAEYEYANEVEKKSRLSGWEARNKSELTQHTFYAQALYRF

truncated CymA (ΔN15) = truncated CymA (ΔN15) (Klebsiella oxytoca, UniProt Q48391); details: +50 mV
[1] = pH 8.0, 1 M KCl, 10 mM HEPES, trans side, mean dwell time of blockage (koff = 1/τoff)
[2] = pH 6.0, mean dwell time of blockage

Row | SMILES | τoff (native CymA; [1]) | τoff (truncated CymA (ΔN15); [1]) | τoff (native CymA; [2]) | τoff (truncated CymA (ΔN15); [2])
1 | NC[C@H]1O[C@@H]2O[C@H]3[C@H](O)[C@@H](O)[C@@H](O[C@H]4[C@H](O)[C@@H](O)[C@@H](O[C@H]5[C@H](O)[C@@H](O)[C@@H](O[C@H]6[C@H](O)[C@@H](O)[C@@H](O[C@H]7[C@H](O)[C@@H](O)[C@@H](O[C@H]1[C@H](O)[C@H]2O)O[C@@H]7CN)O[C@@H]6CN)O[C@@H]5CN)O[C@@H]4CN)O[C@@H]3CN [am6αCD] | 0.55 ± 0.06 ms | 0.32 ± 0.04 ms | – | –
2 | OC[C@H]1O[C@@H]2O[C@H]3[C@H](O)[C@@H](O)[C@@H](O[C@H]4[C@H](O)[C@@H](O)[C@@H](O[C@H]5[C@H](O)[C@@H](O)[C@@H](O[C@H]6[C@H](O)[C@@H](O)[C@@H](O[C@H]7[C@H](O)[C@@H](O)[C@@H](O[C@H]1[C@H](O)[C@H]2O)O[C@@H]7CO)O[C@@H]6CO)O[C@@H]5CO)O[C@@H]4CO)O[C@@H]3CO [αCD] | – | – | 0.620 ± 0.05 ms | 0.4500 ± 0.04 ms
